From ChEMBL document CHEMBL1201862, “PubChem BioAssay data set” (2004) come the findings set out here.

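Five compound concentrations were applied to cells in 96-well plates for 48 hours; endpoints were derived by simple linear interpolation of the resulting dose-response curve. GI50 = concentration required for 50% inhibition of growth.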 Calls of active or inactive are those of the source. No stated cut-off is given here; in the data, active = GI50 up to about 1.1 µM and inactive = higher. A value given as a limit tells only on which side of the number the result lay.

Among the test systems are MCF7; 786-0; SK-OV-3; MOLT-4; NCI-H226; Malme-3M; MDA-N; SF-539; MDA-MB-231; SK-MEL-28; PC-3; ACHN; OVCAR-8; NCI-H460; A498; SNB-75; HCC 2998; CAKI-1.
Holding throughout (test): NCI tumour cell line growth inhibition, 48 h

Regarding `O=C1c2ccccc2CCC1C(O)(C(F)(F)F)C(F)(F)F` (centres undefined), the GI50 in the test with MCF7 is > 100 µM (inactive); with 786-0, > 100 µM (inactive); in the test on SK-OV-3 it was > 100 µM (inactive); in the test on MOLT-4, 44.6 µM (inactive); with NCI-H226, > 100 µM (inactive); in the test with Malme-3M, > 100 µM (inactive). Besides, the GI50 in the test with MDA-N, in the test on SF-539, with MDA-MB-231, with SK-MEL-28, in the test with PC-3 and in the test with ACHN was > 100 µM (inactive) in each case. For the same molecule, the GI50 in the test on OVCAR-8 is > 100 µM (inactive); in the test on NCI-H460 it was > 100 µM (inactive); with A498, > 100 µM (inactive); in the test with SNB-75, 26.2 µM (inactive); in the test on HCC 2998, 3.67 µM (inactive); with CAKI-1, > 100 µM (inactive).

Consider `C/C(=C\c1ccccc1)C(=O)NCc1ccc(C(=O)NCCc2ccccc2)cc1`, for which the GI50 was > 100 µM (inactive) in the test with MCF7; 20.6 µM (inactive) with 786-0; 12.2 µM (inactive) with SK-OV-3; > 100 µM (inactive) in the test with MOLT-4; 17.9 µM (inactive) with NCI-H226; > 100 µM (inactive) in the test with Malme-3M. The GI50 is > 100 µM (inactive) in the test with MDA-N; 10.1 µM (inactive) in the test on SF-539; > 43.2 µM (inactive) in the test with MDA-MB-231; > 100 µM (inactive) in the test on SK-MEL-28; > 100 µM (inactive) in the test on PC-3; > 94.6 µM (inactive) in the test on ACHN. Also, the GI50 in the test with OVCAR-8 is 3.47 µM (inactive); in the test with NCI-H460, > 100 µM (inactive); with A498, > 66.5 µM (inactive); with SNB-75, 3.95 µM (inactive); in the test on HCC 2998, > 100 µM (inactive); with CAKI-1, > 93.3 µM (inactive).

For `COc1ccc(-n2nnc3c(C#N)c(-c4ccccc4)c(C)n3c2=O)cc1`, the GI50 with MCF7 is 40.2 µM (inactive); with 786-0, 19.1 µM (inactive); in the test on SK-OV-3, > 100 µM (inactive); with NCI-H226 it was 85.1 µM (inactive); in the test on Malme-3M it was > 100 µM (inactive); in the test on MDA-N, > 100 µM (inactive). In addition, the GI50 with SF-539 was 31.7 µM (inactive); in the test on MDA-MB-231, 25.2 µM (inactive); with SK-MEL-28, > 100 µM (inactive); with PC-3, 29.2 µM (inactive); in the test on ACHN, 30.1 µM (inactive); in the test with OVCAR-8, 27.4 µM (inactive). For the same molecule, the GI50 in the test with NCI-H460 is 51.4 µM (inactive); in the test on A498, 38.1 µM (inactive); in the test on SNB-75, 27.1 µM (inactive); in the test with HCC 2998, 72.6 µM (inactive); with CAKI-1, 45.4 µM (inactive).

For the molecule `CC1(C)CCC[C@@]2(C)C1CC[C@@]1(CO1)[C@@H]2/C=C\C(C=O)CC=O` (some centres undefined), the GI50 is > 100 µM (inactive) in the test with MCF7; > 75.3 µM (inactive) in the test with 786-0; > 100 µM (inactive) in the test with SK-OV-3; 21.5 µM (inactive) in the test with MOLT-4; > 100 µM (inactive) in the test with NCI-H226; > 100 µM (inactive) with Malme-3M. For the same molecule, the GI50 with MDA-N was > 87.9 µM (inactive); with SF-539, > 87.3 µM (inactive); with MDA-MB-231, > 100 µM (inactive); in the test on SK-MEL-28, > 100 µM (inactive); with PC-3, > 70.3 µM (inactive); with ACHN it was > 100 µM (inactive). Moreover, the GI50 in the test with OVCAR-8 is > 100 µM (inactive); with NCI-H460, > 100 µM (inactive); with A498 it was > 100 µM (inactive); with SNB-75 it was > 80.5 µM (inactive); in the test on HCC 2998 it was > 100 µM (inactive); in the test with CAKI-1, > 100 µM (inactive).

`O=C(CNC(=O)OCc1ccccc1)NCCCCC(NC(=O)OCc1ccccc1)C(=O)O` (centres undefined): the GI50 in the test with MCF7, with 786-0, in the test with SK-OV-3, in the test on MOLT-4, in the test on NCI-H226 and in the test on Malme-3M was > 100 µM (inactive) in each case. In addition, the GI50 in the test with MDA-N, with SF-539, with MDA-MB-231, in the test with SK-MEL-28, in the test on PC-3 and in the test with ACHN was > 100 µM (inactive) throughout. Further, the GI50 with OVCAR-8, in the test on NCI-H460, in the test with A498, with SNB-75, in the test on HCC 2998 and with CAKI-1 was > 100 µM (inactive) in each case.

On to `CS(=O)(=O)OCCCCOS(=O)(=O)CF`, for which the GI50 with MCF7 is > 95.1 µM (inactive); in the test with 786-0, > 100 µM (inactive); with SK-OV-3, > 100 µM (inactive); in the test on MOLT-4 it was 32.9 µM (inactive); in the test on NCI-H226, > 100 µM (inactive); in the test with Malme-3M, > 46.5 µM (inactive). Moreover, the GI50 in the test on MDA-N is > 100 µM (inactive); in the test with SF-539, > 100 µM (inactive); in the test on MDA-MB-231 it was > 100 µM (inactive); in the test with SK-MEL-28 it was > 100 µM (inactive); in the test with PC-3, > 100 µM (inactive); in the test with ACHN it was 52.6 µM (inactive). The GI50 in the test on OVCAR-8 was > 100 µM (inactive); in the test on NCI-H460, 56 µM (inactive); in the test on A498, > 100 µM (inactive); in the test with SNB-75, > 100 µM (inactive); with HCC 2998, > 100 µM (inactive); in the test on CAKI-1, > 72.1 µM (inactive).

As to `CC(C)(Br)C(Br)CCC(C)(Br)C(Br)CO` (centres undefined), the GI50 in the test with MCF7, in the test with 786-0, in the test with SK-OV-3, in the test with MOLT-4, in the test on NCI-H226 and in the test on Malme-3M was > 10 µM (inactive) throughout. Moreover, the GI50 in the test on MDA-N, with SF-539, with MDA-MB-231, in the test with SK-MEL-28, in the test with PC-3 and in the test with ACHN was > 10 µM (inactive) each time. For the same molecule, the GI50 in the test on OVCAR-8, in the test on A498, in the test on SNB-75, in the test with HCC 2998 and in the test with CAKI-1 was > 10 µM (inactive) in each case.

With `C=C(C(=O)O)[C@@H]1C[C@@H](OC(C)=O)[C@]2(C)CC/C=C(\C)CCC[C@H](C)[C@H](O)[C@@H]1O2`, the GI50 in the test on MCF7 was 26.7 µM (inactive); in the test with 786-0, 44.5 µM (inactive); in the test with SK-OV-3, 34.5 µM (inactive); with MOLT-4, 24.7 µM (inactive); with NCI-H226, 14.9 µM (inactive); with Malme-3M, 61.7 µM (inactive). Moreover, the GI50 was 24.5 µM (inactive) in the test with MDA-N; 18 µM (inactive) with SF-539; > 100 µM (inactive) in the test with MDA-MB-231; 77.4 µM (inactive) with SK-MEL-28; 39.7 µM (inactive) in the test on PC-3; 55.7 µM (inactive) with ACHN. The GI50 was 27.5 µM (inactive) with OVCAR-8; 66.4 µM (inactive) in the test with NCI-H460; > 100 µM (inactive) with A498; 74.8 µM (inactive) in the test with SNB-75; > 100 µM (inactive) in the test with HCC 2998; 71 µM (inactive) in the test with CAKI-1.

Consider `Nc1nn2c(nc(N)c3c(N)n[nH]c32)c1/N=N\c1ccc(Br)cc1`, for which the GI50 was > 100 µM (inactive) in the test with MCF7; 40.9 µM (inactive) with 786-0; > 100 µM (inactive) in the test with SK-OV-3; 3.53 µM (inactive) in the test on MOLT-4; 55 µM (inactive) in the test on NCI-H226; 4.42 µM (inactive) in the test on Malme-3M. Besides, the GI50 is 3.65 µM (inactive) with MDA-N; 15.1 µM (inactive) with SF-539; 0.524 µM (active) with MDA-MB-231; 7.73 µM (inactive) in the test on SK-MEL-28; > 100 µM (inactive) in the test on PC-3; 69.3 µM (inactive) in the test with ACHN. Further, the GI50 in the test with OVCAR-8 was 21 µM (inactive); with NCI-H460, > 100 µM (inactive); in the test with A498 it was > 100 µM (inactive); in the test on SNB-75, 18.1 µM (inactive); with HCC 2998 it was > 100 µM (inactive); with CAKI-1, > 100 µM (inactive).

In the case of `CCCCCCc1ccc(C(=O)NO)cc1`, the GI50 was 59.3 µM (inactive) in the test on MCF7; 13.7 µM (inactive) with 786-0; 40.2 µM (inactive) in the test with SK-OV-3; 11.7 µM (inactive) in the test with MOLT-4; 24.4 µM (inactive) in the test on NCI-H226; 45.6 µM (inactive) in the test with MDA-N. Moreover, the GI50 with SF-539 was 49.8 µM (inactive); in the test on MDA-MB-231, 95.7 µM (inactive); in the test with SK-MEL-28 it was 56.5 µM (inactive); in the test on PC-3, 31.8 µM (inactive); in the test on ACHN, 22.9 µM (inactive); with OVCAR-8, 13.1 µM (inactive). For the same molecule, the GI50 in the test on NCI-H460 is 25 µM (inactive); in the test with A498, 29.2 µM (inactive); in the test with SNB-75, 42.9 µM (inactive); with HCC 2998, 65.2 µM (inactive); in the test on CAKI-1 it was 28.1 µM (inactive).

As for `COC(=O)C1[C@H](C(=O)OC)C1(Br)CBr` (some centres undefined), the GI50 is > 100 µM (inactive) in the test with MCF7; > 100 µM (inactive) in the test with 786-0; > 100 µM (inactive) in the test on SK-OV-3; 40.1 µM (inactive) with MOLT-4; > 100 µM (inactive) in the test with NCI-H226; > 100 µM (inactive) in the test on MDA-N. Besides, the GI50 with SF-539, in the test on MDA-MB-231, in the test with SK-MEL-28, in the test on PC-3, in the test on ACHN and in the test with OVCAR-8 was > 100 µM (inactive) throughout. Also, the GI50 with NCI-H460, with A498, with SNB-75, in the test on HCC 2998 and with CAKI-1 was > 100 µM (inactive) in each case.
